From patent US6777544B2, “Polyamide nucleic acid derivatives and agents and processes for preparing them” (Aventis Pharma Deutschland GmbH, priority 2000, dated 2004)

What was measured:
complementary RNA = test: Melting temperature (Tm) of PNA with complementary RNA; assay type: binding; conditions: 140 mM KCl, 10 mM sodium dihydrogen phosphate, 0.1 mM EDTA (pH 7.4); oligomer 0.5 to 1 OD260 per ml
Description: (§1) The melting temperatures were determined using an HP 8452A diode-array spectrophotometer, an HP 89090A Peltier element, and HP Temperature Control Software Rev. B5.1 (from Hewlett Packard). Measurements were taken in 0.5° C./min steps in 140 mM KCl, 10 mM sodium dihydrogen phosphate, 0.1 mM EDTA (pH 7.4) as the buffer. The oligomer concentration was from 0.5 to 1 OD260 per ml.

complementary DNA = test: Melting temperature (Tm) of PNA with complementary DNA; assay type: binding; conditions: 140 mM KCl, 10 mM sodium dihydrogen phosphate, 0.1 mM EDTA (pH 7.4); oligomer 0.5 to 1 OD260 per ml
Description: as §1

COS cells = test: Cell uptake after fluorescence labeling (fluorescence microscopy); assay type: cell-based; conditions: PNA solution 10 μM, 37° C., examined after 2, 4 and 16 hours, C-terminally fluorescein-labeled, compared with labeled PNA-6
Description: COS cells were allowed to grow to confluence in Dulbecco's MEM (DMEM), which had been supplemented with 10% FCS, in 5 cm Petri dishes. The cells were washed twice with serum-free DM EM. An area of approx. 1 cm^2 was scratched out in the middle of the Petri dish using a sterile needle. The PNA solution (10 μM) under investigation was applied in this area. The dish was incubated at 37° C. under a CO2 atmosphere. After 2, 4, and 16 hours, the cells were examined by fluorescence microscopy. For this, the cells were washed four times with serum-free DM EM, covered with a cover slip, and evaluated under the fluorescence microscope or by phase contrast.
In order to investigate the cell uptake, PNA-6 and PNA-13 were labeled as indicated directly below with fluorescein at the C terminus and then examined microscopically.

REH cells = test: Inhibiting cell proliferation (cell density); assay type: cell-based, human; conditions: 10 μM
Description: The sequence of PNA-13 is directed against the translation start of the Ha-ras mRNA. REH cells (human pre-B leukemia cells, DSM ACC 22) or A549 tumor cells were cultured, at 37° C. and under 5% CO2, in OptiMEM (Gibco BRL) containing 10% fetal calf serum (FCS, GIBCO-BRL). The cell density for the assay was approx. 1×10^6/ml. The PNA-13 (10 μM) was incubated with the cells in 24-well plates. After incubating at 37° C. and under 5% CO2 for 96 hours, the cell density was determined. Mean values for the cell density were determined from 3 individual wells at a given PNA concentration.

| Substance | Tm (RNA) (complementary RNA) [°C] | Tm (DNA) (complementary DNA) [°C] | cell uptake (COS cells) | inhibition of cell proliferation (REH cells; 96 hours, 37° C., 5% CO2) | inhibition of proliferation compared with a corresponding phosphorothioate oligonucleotide (REH cells; after >4 days of incubation) |
| --- | --- | --- | --- | --- | --- |
| Ac-HN-tat tcc gtc at-hex [Reference, reference compound] | 56.6 | 41.9 |  |  |  |
| Biotin-p-{t(oeg) at tcc gtc at}-hex [PNA-12] | 57.9 | 43.6 |  |  |  |
| Fluorescein-p-{t(oeg) at tcc gtc at}-hex (TATTCCGTCAT; chemistry not fully specified) [PNA-14] | 56.7 | 42.5 |  |  |  |
| Hexadecyl-O-p-{t(oeg) at tcc gtc at}-hex (TATTCCGTCAT; chemistry not fully specified) [PNA-13] | 58.9 | 46.7 | taken up more efficiently into the cells | inhibits proliferation of the REH cells | greater than that brought about by a corresponding phosphorothioate oligonucleotide |
| Phosphate-{t(oeg)-at tcc gtc at}-hex (TATTCCGTCAT; chemistry not fully specified) [PNA-6] | 57.5 | 44.0 |  |  |  |
